From PubChem BioAssay AID248 (DTP/NCI, 2004)
Values joined by “and” are separate entries in the source; they are usually repeats but may differ in a detail not shown here. Equal entries are not always repeated. Inconclusive results and toxic doses are left out. Cut-off read from the data, not from the text of the source: active = T/C of 150% or more; inactive = T/C below 125%.

System: L1210 leukemia ip in BDF1 mice, survival T/C
Assay: NCI In Vivo Anticancer Drug Screen. Data for tumor model L1210 Leukemia (intraperitoneal) in B6D2F1 (BDF1) mice
Details: endpoint: mean survival time, higher = longer survival
Method in brief: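 Antitumor effect is assessed in tumor-bearing animals. Survival in the compound arm is compared with a vehicle-dosed control arm and expressed as their quotient.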

[1] = dose: 100.0 mg/kg/injection, schedule: Q04DX003 (ip), vehicle: saline with Tween-80
[2] = dose: 200.0 mg/kg/injection, schedule: Q04DX003 (ip), vehicle: saline with Tween-80
[3] = dose: 100.0 mg/kg/injection, schedule: Q04DX002 (ip), vehicle: saline with Tween-80
[4] = dose: 200.0 mg/kg/injection, schedule: Q04DX002 (ip), vehicle: saline with Tween-80
[5] = dose: 400.0 mg/kg/injection, schedule: Q04DX002 (ip), vehicle: saline with Tween-80
[6] = dose: 400.0 mg/kg/injection, schedule: Q04DX003 (ip), vehicle: saline with Tween-80
[7] = dose: 100.0 mg/kg/injection, schedule: Q04DX003 (ip), vehicle: saline
[8] = dose: 200.0 mg/kg/injection, schedule: Q04DX003 (ip), vehicle: saline
[9] = dose: 400.0 mg/kg/injection, schedule: Q04DX003 (ip), vehicle: saline
[10] = dose: 100.0 mg/kg/injection, schedule: Q01DX009 (ip), vehicle: Klucel (hydroxypropylcellulose) (HPC)
[11] = dose: 200.0 mg/kg/injection, schedule: Q01DX009 (ip), vehicle: Klucel (hydroxypropylcellulose) (HPC)
[12] = dose: 100.0 mg/kg/injection, schedule: Q01DX001 (ip), vehicle: carboxymethylcellulose (CMC)
[13] = dose: 200.0 mg/kg/injection, schedule: Q01DX001 (ip), vehicle: carboxymethylcellulose (CMC)
[14] = dose: 400.0 mg/kg/injection, schedule: Q01DX001 (ip), vehicle: carboxymethylcellulose (CMC)
[15] = dose: 100.0 mg/kg/injection, schedule: Q01DX001 (ip), vehicle: saline
[16] = dose: 200.0 mg/kg/injection, schedule: Q01DX001 (ip), vehicle: saline
[17] = dose: 400.0 mg/kg/injection, schedule: Q01DX001 (ip), vehicle: saline
[18] = dose: 400.0 mg/kg/injection, schedule: Q01DX009 (ip), vehicle: Klucel (hydroxypropylcellulose) (HPC)

Measured: T/C

O=C(O)c1ccc(OCCCOc2ccccc2)c(Cl)c1
inactive: [1] 96 % of control | [2] 93 % of control

CCC1(O)CC(OC2CC(NC)C(OC3CC(O)C(OC4CC(O)C(O)C(C)O4)C(C)O3)C(C)O2)c2c(cc3c(c2O)C(=O)c2c(O)ccc(O)c2C3=O)C1C(=O)OC (stereo unspecified)
inactive: dose: 1.6 mg/kg/injection, schedule: Q01DX001 (ip), vehicle: saline 101 % of control | dose: 3.2 mg/kg/injection, schedule: Q01DX001 (ip), vehicle: saline 108 % of control | dose: 6.4 mg/kg/injection, schedule: Q01DX001 (ip), vehicle: saline 124 % of control | dose: 12.8 mg/kg/injection, schedule: Q01DX001 (ip), vehicle: saline 117 % of control | dose: 25.6 mg/kg/injection, schedule: Q01DX001 (ip), vehicle: saline 114 % of control

CCN(CC)CCCNC(c1ccc(OC)cc1)C(Cl)(Cl)Cl (stereo unspecified)
inactive: dose: 75.0 mg/kg/injection, schedule: Q01DX001 (ip), vehicle: saline 90 % of control | dose: 150.0 mg/kg/injection, schedule: Q01DX001 (ip), vehicle: saline 93 % of control

CC(=O)Nc1ccc(NC(=O)Nc2cc(C)ccc2C)cc1
inactive: dose: 25.0 mg/kg/injection, schedule: Q04DX003 (ip), vehicle: saline with Tween-80 91 % of control | dose: 50.0 mg/kg/injection, schedule: Q04DX003 (ip), vehicle: saline with Tween-80 89 % of control | dose: 100.0 mg/kg/injection, schedule: Q01DX001 (ip), vehicle: saline with Tween-80 91 % of control | dose: 100.0 mg/kg/injection, schedule: Q01DX009 (ip), vehicle: saline with Tween-80 92 % of control and 86 % of control | [3] 90 % of control and 91 % of control | [1] 91 % of control | dose: 200.0 mg/kg/injection, schedule: Q01DX001 (ip), vehicle: saline with Tween-80 89 % of control | dose: 200.0 mg/kg/injection, schedule: Q01DX009 (ip), vehicle: saline with Tween-80 99 % of control and 91 % of control | [4] 87 % of control and 90 % of control | dose: 400.0 mg/kg/injection, schedule: Q01DX001 (ip), vehicle: saline with Tween-80 89 % of control | dose: 400.0 mg/kg/injection, schedule: Q01DX009 (ip), vehicle: saline with Tween-80 92 % of control and 100 % of control | [5] 89 % of control and 91 % of control | [6] 87 % of control

CCN(CC)CCOCCO
inactive: [7] 96 % of control | [8] 102 % of control | [9] 109 % of control

COc1ccc2c(ccc3c2ncc2c(=O)[nH]n(C)c23)c1
inactive: dose: 50.0 mg/kg/injection, schedule: Q01DX009 (ip), vehicle: Klucel (hydroxypropylcellulose) (HPC) 93 % of control | [10] 93 % of control | [11] 93 % of control

O=C(O)CCCC1CCc2ccccc2C1 (stereo unspecified)
inactive: dose: 100.0 mg/kg/injection, schedule: Q01DX001 (ip), vehicle: Klucel (hydroxypropylcellulose) (HPC) 104 % of control | dose: 200.0 mg/kg/injection, schedule: Q01DX001 (ip), vehicle: Klucel (hydroxypropylcellulose) (HPC) 102 % of control | dose: 400.0 mg/kg/injection, schedule: Q01DX001 (ip), vehicle: Klucel (hydroxypropylcellulose) (HPC) 103 % of control

O=S1(=O)CN2C=CC=CC2=N1
inactive: [3] 113 % of control | [4] 91 % of control | [5] 109 % of control

COc1ccc(C(C#N)CC(=O)c2ccc3c(c2)OCO3)cc1OC (stereo unspecified)
inactive: dose: 100.0 mg/kg/injection, schedule: Q01DX009 (ip), vehicle: saline 104 % of control | [7] 98 % of control | dose: 200.0 mg/kg/injection, schedule: Q01DX009 (ip), vehicle: saline 104 % of control | [8] 104 % of control | dose: 400.0 mg/kg/injection, schedule: Q01DX009 (ip), vehicle: saline 97 % of control | [9] 98 % of control

O=C(O)CCC(NC(=O)c1ccccc1C(=O)O)C(=O)O (stereo unspecified)
inactive: [12] 94 % of control | [13] 94 % of control | [14] 90 % of control

CCSC(=O)CC
inactive: [1] 104 % of control | [2] 100 % of control | [6] 95 % of control

CCCCCC1OC1CC1OC1CCCCCCCC(=O)OC (stereo unspecified)
inactive: [15] 109 % of control | [16] 95 % of control | [17] 102 % of control

OC(C(c1ccccc1)N1CCOCC1)C(O)(c1ccccc1)c1ccccc1 (stereo unspecified)
inactive: [15] 106 % of control | [16] 94 % of control | [17] 97 % of control

Nc1ccc(C(=O)CC(N)C(=O)O)cc1O (stereo unspecified)
inactive: [12] 112 % of control | [13] 91 % of control | [14] 100 % of control

CN(C)C=NCC1CCCO1 (stereo unspecified)
inactive: [15] 97 % of control | [16] 90 % of control | [17] 97 % of control

NC(CCl)CCl
inactive: dose: 12.5 mg/kg/injection, schedule: Q01DX Z (ip), vehicle: other 92 % of control | dose: 25.0 mg/kg/injection, schedule: Q01DX Z (ip), vehicle: other 100 % of control | dose: 100.0 mg/kg/injection, schedule: Q01DX Z (ip), vehicle: other 94 % of control

Cn1nc(N)c2cc(C#N)c(N)nc21
inactive: [10] 90 % of control | [11] 90 % of control | [18] 95 % of control

OCCCCOc1ccccc1
inactive: [15] 105 % of control | [16] 100 % of control | [17] 96 % of control

CN1C(CSCC(F)(F)F)Nc2cc(Cl)c(S(N)(=O)=O)cc2S1(=O)=O (stereo unspecified)
inactive: [12] 108 % of control | [13] 106 % of control | [14] 103 % of control

CCOC(=O)CN1CCN2C(=O)N(CC)CCC2C1 (stereo unspecified)
inactive: [7] 95 % of control | [8] 90 % of control | [9] 101 % of control

NC(=O)OCc1ccccc1
inactive: dose: 50.0 mg/kg/injection, schedule: Q04DX002 (ip), vehicle: Klucel (hydroxypropylcellulose) (HPC) 98 % of control | dose: 100.0 mg/kg/injection, schedule: Q04DX002 (ip), vehicle: Klucel (hydroxypropylcellulose) (HPC) 98 % of control | dose: 200.0 mg/kg/injection, schedule: Q04DX002 (ip), vehicle: Klucel (hydroxypropylcellulose) (HPC) 94 % of control | dose: 400.0 mg/kg/injection, schedule: Q04DX002 (ip), vehicle: Klucel (hydroxypropylcellulose) (HPC) 94 % of control

CN1C(=O)CC[n+]2ccccc21
inactive: [7] 101 % of control | [8] 104 % of control | [9] 86 % of control

CCCC/C(=N/NC(N)=O)C(OC)OC
inactive: dose: 100.0 mg/kg/injection, schedule: Q01DX001 (ip), vehicle: other 92 % of control | dose: 200.0 mg/kg/injection, schedule: Q01DX001 (ip), vehicle: other 86 % of control | dose: 400.0 mg/kg/injection, schedule: Q01DX001 (ip), vehicle: other 94 % of control

CNC(=O)NS(=O)(=O)c1ccc([N+](=O)[O-])cc1
inactive: [12] 95 % of control | [13] 91 % of control | [14] 92 % of control

Oc1ccc(C2C=CCC2)cc1C1C=CCC1 (stereo unspecified)
inactive: [10] 105 % of control | dose: 100.0 mg/kg/injection, schedule: Q04DX003 (ip), vehicle: Klucel (hydroxypropylcellulose) (HPC) 100 % of control | [11] 100 % of control | dose: 200.0 mg/kg/injection, schedule: Q04DX003 (ip), vehicle: Klucel (hydroxypropylcellulose) (HPC) 96 % of control | [18] 94 % of control | dose: 400.0 mg/kg/injection, schedule: Q04DX003 (ip), vehicle: Klucel (hydroxypropylcellulose) (HPC) 109 % of control

O=C(Nc1ccccc1)c1cc(Cl)ccn1
inactive: [12] 100 % of control | [13] 97 % of control | [14] 97 % of control

Cc1cccc(NC(=O)C(Br)C(Br)c2ccccc2)c1C (stereo unspecified)
inactive: [10] 94 % of control | [11] 105 % of control | [18] 105 % of control

O=[N+]([O-])c1ccc(C2ON2C2CCCCC2)cc1 (stereo unspecified)
inactive: [12] 87 % of control | [14] 108 % of control

O=C(Nc1cccc(Br)c1)c1cc(Cl)cc(Cl)c1Br
inactive: dose: 87.5 mg/kg/injection, schedule: Q04DX003 (ip), vehicle: saline with Tween-80 105 % of control | dose: 175.0 mg/kg/injection, schedule: Q04DX003 (ip), vehicle: saline with Tween-80 97 % of control | dose: 350.0 mg/kg/injection, schedule: Q04DX003 (ip), vehicle: saline with Tween-80 97 % of control

CC(=O)OCC1OC(Oc2ccc([N+](=O)[O-])cc2[N+](=O)[O-])C(OC(C)=O)C(OC(C)=O)C1OC(C)=O (stereo unspecified)
inactive: [1] 100 % of control | [2] 91 % of control | [6] 91 % of control
